Structures are written as SMILES.

Chain of human BLT1 receptor (Q15722 whole entry): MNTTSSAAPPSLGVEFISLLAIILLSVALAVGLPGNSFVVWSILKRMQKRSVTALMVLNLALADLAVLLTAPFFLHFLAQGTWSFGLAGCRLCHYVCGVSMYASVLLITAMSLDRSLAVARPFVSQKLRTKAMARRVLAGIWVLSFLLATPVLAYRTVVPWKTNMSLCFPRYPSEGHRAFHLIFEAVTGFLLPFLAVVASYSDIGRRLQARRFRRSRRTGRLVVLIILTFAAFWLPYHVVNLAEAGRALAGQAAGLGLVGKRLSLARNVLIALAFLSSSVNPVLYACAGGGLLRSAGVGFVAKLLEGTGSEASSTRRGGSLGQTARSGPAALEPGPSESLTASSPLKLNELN

This test concerns the target human BLT1 receptor (Homo sapiens (Human), UniProt Q15722). Briefly: BLT-1 cAMP Assay. In kind it is cell-based. The conditions noted are these: antagonist mode; HEK293 cells recombinantly expressing human BLT1 receptor; forskolin 4 μM and LTB4 2 nM; cAMP detection. On the procedure:
The ability of compounds to antagonize the human BLT1 receptor was determined using a kit to measure changes in intracellular cyclic AMP levels (cAMP dynamic assay kit, Cisbio Cat. No. 62AM4PEC). HEK293 cells recombinantly expressing human BLT1 receptor, previously frozen in Recovery Medium (Life Technologies, Cat. No. 12648-010) were thawed and diluted into assay medium (HBSS (Hyclone SH 30268.01), 20 mM HEPES (Gibco 15630-106), 800 μM IBMX (Sigma I5879), 0.1% DTPA BSA (Perkin Elmer CR84-100)). The cell suspension was centrifuged at 200×g for 10 min and then resuspended in fresh assay medium to a density of 2.5×10^5 cells/mL. A Labcyte Echo 550 acoustic dispenser was used to transfer 25 nL of test compound dissolved in DMSO into the wells of a dry 384-well plate (Greiner 784075). All subsequent liquid additions were performed using a BIORAPTR (FRD; Beckman Coulter). Next, 5 μL of cell suspension was added and incubated for 20 min. at 37° C. and 5% CO2 in a humidified plastic tray. To test for agonist activity […] of assay buffer containing forskolin (Sigma F-6886. 4 μM for BLT1) was added and incubated for 30 minutes at 37° C. and 5% CO2 in a humidified plastic tray. To test for antagonist activity 5 μL of assay buffer containing forskolin (Sigma F-6886. 4 μM for BLT1) and either LTB4 (Sigma Aldrich L0517; 2 nM BLT1) was added and incubated for 30 minutes at 37° C. and 5% CO2 in a humidified plastic tray.
The levels of cAMP were detected using the CisBio kit following the manufacturer's instructions: cAMP-d2 vial was reconstituted with distilled water and then diluted accordingly with conjugate & lysis buffer. 5 μL of cAMP-d2 working solution was added to all of the wells of the assay plate. cAMP-Cryptate vial was reconstituted with distilled water and then diluted accordingly with conjugate & lysis buffer. 5 μL of cAMP-Cryptate working solution were added to the assay plate. The assay plate was shaken for 3 minutes and incubated at room temperature for 45 minutes, then read on Perkin Elmer Envision. cAMP standard curve and fit data were plotted using a 4 parameter dose response curve fitting algorithm to fit curve. A 4-parameter curve fit (Max, min, log EC50 and slope) was used to transform fluorescent 665 nm/615 nm ratio signal to cAMP concentration. After normalization to treated and untreated controls, the percent effect of signal at each compound concentration was calculated. The plot of percent effect versus the log of compound concentration was fit with a 4-parameter concentration response equation to calculate EC50 values. Compound concentrations tested were 10 000, 3 333, 1 111, 370.4, 123.4, 41.2, 13.7, 4.6, 1.5 and 0.5 nM with 0.25% residual DMSO.
For orientation: EC50 means the concentration at which the effect is half-maximal. Turning to `O=C(NS(=O)(=O)C(F)(F)F)c1ccc(F)cc1-c1ccc2c(c1)OC[C@H](Cc1ccc(-c3ccccc3)cc1)[C@H]2O` (racemic) [Example 40, 2-((Rac-trans)-3-([1,1′-Biphenyl]-4-ylmethyl)-4-hydroxychroman-7-yl)-4-fluoro-N-((trifluoromethyl)sulfonyl)benzamide], the 50% effective concentration (EC50) was found to be 9 nM.

As to `CC1(S(=O)(=O)NC(=O)c2ccccc2-c2ccc3c(c2)OC[C@@H](Cc2ccccn2)[C@@H]3O)CC1` (single isomer, unassigned) [Example 7, 2-((3R,4S or 3S,4R)-4-Hydroxy-3-(pyridin-2-ylmethyl)chroman-7-yl)-N-((1-methylcyclopropyl)sulfonyl)benzamide], the EC50 was determined as 1270 nM.

For `CCn1nccc1C[C@@H]1COc2cc(-c3ccccc3C(=O)NS(=O)(=O)C(C)(C)C)ccc2[C@H]1O` (single isomer, unassigned) [Example 38, N-(tert-Butylsulfonyl)-2-((3R,4S or 3S,4R)-3-((1-ethyl-1H-pyrazol-5-yl)methyl)-4-hydroxychroman-7-yl)benzamide], the EC50 amounted to 1160 nM. The same measure for `Cn1nccc1C[C@@H]1COc2cc(-c3ccccc3C(=O)NS(=O)(=O)C(C)(C)C)ccc2[C@H]1O` (racemic) [Example 35, N-(tert-Butylsulfonyl)-2-((rac-trans)-4-hydroxy-3-((1-methyl-1H-pyrazol-5-yl)methyl)chroman-7-yl)benzamide]: 95 nM; for `O=C(NS(=O)(=O)CC1CC1)c1ccccc1-c1ccc2c(c1)OCC(Cc1ccccn1)C2O` (stereo not drawn) [Example 18, N-((Cyclopropylmethyl)sulfonyl)-2-((3,4-trans)-4-hydroxy-3-(pyridin-2-ylmethyl)chroman-7-yl)benzamide]: 23 nM. The same measure for `CC1(S(=O)(=O)NC(=O)c2ccccc2-c2ccc3c(c2)OC[C@H](Cc2ccccn2)[C@H]3O)CC1` (single isomer, unassigned) [Example 8, 2-((3S,4R or 3R,4S)-4-Hydroxy-3-(pyridin-2-ylmethyl)chroman-7-yl)-N-((1-methylcyclopropyl)sulfonyl)benzamide]: 22 nM; for `CC1(S(=O)(=O)NC(=O)c2ccccc2-c2ccc3c(c2)OC[C@H](Cc2ccccc2)[C@H]3O)CC1` (single isomer, unassigned) [Example 22, 2-((3S,4R or 3R,4S)-3-Benzyl-4-hydroxychroman-7-yl)-N-((1-methylcyclopropyl)sulfonyl)benzamide]: 15 nM. Then `CC(C)(C)S(=O)(=O)NC(=O)c1ccccc1-c1ccc2c(c1)OC[C@@H](Cc1cscn1)[C@@H]2O` (single isomer, unassigned) [Example 33, N-(tert-Butylsulfonyl)-2-((3R,4S or 3S,4R)-4-hydroxy-3-(thiazol-4-ylmethyl)chroman-7-yl)benzamide], with 808 nM; and `CC1(S(=O)(=O)NC(=O)c2ccc(F)cc2-c2ccc3c(c2)OC[C@@H](Cc2ccccn2)[C@@H]3O)CC1` (single isomer, unassigned) [Example 10, 4-Fluoro-2-((3R,4S or 3S,4R)-4-hydroxy-3-(pyridin-2-ylmethyl)chroman-7-yl)-N-((1-methylcyclopropyl)sulfonyl)benzamide], with 870 nM. Take `CS(=O)(=O)NC(=O)c1ccc(F)cc1-c1ccc2c(c1)OC[C@@H](Cc1ccccn1)[C@@H]2O` (single isomer, unassigned) [Example 3, 4-Fluoro-2-((3R,4S or 3S,4R)-4-hydroxy-3-(pyridin-2-ylmethyl)chroman-7-yl)-N-(methylsulfonyl)benzamide]: the EC50 amounted to 1720 nM.

Consider `CC(C)CS(=O)(=O)NC(=O)c1ccccc1-c1ccc2c(c1)OCC(Cc1ccccn1)C2O` (stereo not drawn) [Example 17, 2-((3,4-trans)-4-Hydroxy-3-(pyridin-2-ylmethyl)chroman-7-yl)-N-(isobutylsulfonyl)benzamide], for which the concentration for a half-maximal effect (EC50) stood at 24 nM. The same measure for `CC(C)(C)S(=O)(=O)NC(=O)c1ccccc1-c1ccc2c(c1)OC[C@@H](Cc1coc(-c3ccccc3)n1)[C@@H]2O` (single isomer, unassigned) [Example 47, N-(tert-Butylsulfonyl)-2-((3R,4S or 3S,4R)-4-hydroxy-3-((2-phenyloxazol-4-yl)methyl)chroman-7-yl)benzamide]: 75 nM.

As for `CC1(S(=O)(=O)NC(=O)c2ccccc2-c2ccc3c(c2)OCC(Cc2coc(-c4ccccc4)n2)C3O)CC1` (racemic) [Example 46, 2-(Rac-trans)-4-Hydroxy-3-((2-phenyloxazol-4-yl)methyl)chroman-7-yl)-N-((1-methylcyclopropyl)sulfonyl)benzamide], the EC50 turned out to be 15 nM. The same measure for `CCn1nccc1C[C@H]1COc2cc(-c3ccccc3C(=O)NS(=O)(=O)C(C)(C)C)ccc2[C@@H]1O` (single isomer, unassigned) [Example 37, N-(tert-Butylsulfonyl)-2-((3S,4R or 3R,4S)-3-((1-ethyl-1H-pyrazol-5-yl)methyl)-4-hydroxychroman-7-yl)benzamide]: 36 nM; for `CC(C)(C)S(=O)(=O)NC(=O)c1ccc(F)cc1-c1ccc2c(c1)OC[C@@H](Cc1ccccn1)[C@@H]2O` (single isomer, unassigned) [Example 13, N-(tert-Butylsulfonyl)-4-fluoro-2-((3R,4S or 3S,4R)-4-hydroxy-3-(pyridin-2-ylmethyl)chroman-7-yl)benzamide]: 441 nM. The same measure for `CCn1nccc1C[C@@H]1COc2cc(-c3ccccc3C(=O)NS(=O)(=O)C(C)(C)C)ccc2[C@H]1O` (racemic) [Example 36, N-(tert-Butylsulfonyl)-2-((rac-trans)-3-((1-ethyl-1H-pyrazol-5-yl)methyl)-4-hydroxychroman-7-yl)benzamide]: 81 nM; for `CC(C)(C)S(=O)(=O)NC(=O)c1ccccc1-c1ccc2c(c1)OC[C@@H](Cc1cscn1)[C@@H]2O` (racemic) [Example 32, N-(tert-Butylsulfonyl)-2-((rac-trans)-4-hydroxy-3-(thiazol-4-ylmethyl)chroman-7-yl)benzamide]: 11 nM; for `CC1(S(=O)(=O)NC(=O)c2ccccc2-c2ccc3c(c2)OC[C@H](Cc2coc(-c4ccccc4)n2)[C@H]3O)CC1` (single isomer, unassigned) [Example 45, 2-((3S,4R or 3R,4S)-4-hydroxy-3-((2-phenyloxazol-4-yl)methy)chroman-7-yl)-N-((1-methylcyclopropyl)sulfonyl)benzamide]: 3 nM.

For `O=C(NS(=O)(=O)C(F)(F)F)c1ccc(F)cc1-c1ccc2c(c1)OC[C@@H](Cc1ccc(-c3ccccc3)cc1)[C@@H]2O` (single isomer, unassigned) [Example 41, 2-((3R,4S or 3S,4R)-3-([1,1′-Biphenyl]-4-ylmethyl)-4-hydroxychroman-7-yl)-4-fluoro-N-((trifluoromethyl)sulfonyl)benzamide], the EC50 was found to be 11 nM.

In the case of `O=C(NS(=O)(=O)C1CC1)c1ccccc1-c1ccc2c(c1)OC[C@H](Cc1ccccn1)[C@H]2O` (single isomer, unassigned) [Example 6, N-(Cyclopropylsulfonyl)-2-((3S,4R or 3R,4S)-4-hydroxy-3-(pyridin-2-ylmethyl)chroman-7-yl)benzamide], the EC50 was 28 nM.

For the compound `O=C(NS(=O)(=O)C1CC1)c1ccccc1-c1ccc2c(c1)OC[C@@H](Cc1ccccn1)[C@@H]2O` (single isomer, unassigned) [Example 5, N-(Cyclopropylsulfonyl)-2-((3R,4S or 3S,4R)-4-hydroxy-3-(pyridin-2-ylmethyl)chroman-7-yl)benzamide], the EC50 was found to be 2170 nM. Regarding `O=C(NS(=O)(=O)C1CCCC1)c1ccccc1-c1ccc2c(c1)OCC(Cc1ccccn1)C2O` (stereo not drawn) [Example 19, N-(Cyclopentylsulfonyl)-2-((3,4-trans)-4-hydroxy-3-(pyridin-2-ylmethyl)chroman-7-yl)benzamide], the EC50 was determined as 48 nM. In the case of `CC(C)(C)S(=O)(=O)NC(=O)c1ccccc1-c1ccc2c(c1)OC[C@H](Cc1coc(-c3ccccc3)n1)[C@H]2O` (single isomer, unassigned) [Example 48, N-(tert-Butylsulfonyl)-2-((3S,4R or 3R,4S)-4-hydroxy-3-((2-phenyloxazol-4-yl)methyl)chroman-7-yl)benzamide], the EC50 was found to be 5 nM.

(Values after US10336733B2, “Aryl acylsulfonamides as BLT1 antagonists” (Merck Sharp & Dohme Corp., priority 2015, dated 2019).)
